Data on one compound can be found in patent publication US20210338761A1, “COMPOSITION FOR PREVENTING, AMELIORATING, OR TREATING SLEEP DISTURBANCE COMPRISING EXTRACT OF FRAXINUS SP. PLANT AS EFFECTIVE COMPONENT” (KOREA INSTITUTE OF ORIENTAL MEDICINE, priority 2018, published 2021).

Format in all cases: in vivo, C57BL/6 mouse
What all share (conditions): 15 mg/kg orally for 14 days, foot pad electric shock and restraint stress, cerebral cortex obtained on Day 17

One test deals with neuropeptide Y mRNA. Kind of test: mRNA expression level of neuropeptide Y in cerebral cortex, stress-induced sleep disturbance model (real-time PCR). The method, then:
(§1) 100 mg/kg extract of Fraxinus rhynchophylla and 15 mg/kg doxepin (Sigma-Aldrich, St. Louis, Mo., USA) were dissolved respectively in PBS to the designated concentration. After aliquoting them according to the required administration amount, it was orally administered in an amount of 0.1 ml for each, one hour before applying stress. To the normal and stress control, PBS was orally administered in an amount of 0.1 ml for each.
(§2) Seven-week old male C57BL/6 mouse with bodyweight of 20 to 22 g was obtained from DBL Co., Ltd. (Eumseong-Gun, Chungcheong-Bukdo, Korea). […]
(§3) Expression pattern of the gene in cerebral cortex, which has been removed from each test animal upon the completion of the test, was determined by real-time PCR. The cerebral cortex tissues of a mouse were treated with RNAzolB (Tel-Test) to extract RNA, and then analyzed by cDNA and real-time PCR instrument using One-step SYBR Green PCR kit (AB science). […] Real time quantitative PCR was carried out by using Applied Biosystems 7500 Real-Time PCR system (Applied Biosystems, USA).
Thereafter, foot pad electric shock and restrain were applied to the mouse and then cerebral cortex was collected by autopsy of the mouse to obtain RNA. cDNA was then prepared and mRNA expression of neuropeptide Y was analyzed by using real-time gene analyzer.
(Quantitative PCR measures a nucleic acid by following its amplification.)

In test [1] the test system is GAD65 (glutamic acid decarboxylase 65) mRNA. Kind of test: mRNA expression level of GAD65 in cerebral cortex, stress-induced sleep disturbance model (real-time PCR). The method, then:
as §1, §2, §3
(§4) Thereafter, foot pad electric shock and restrain were applied to the mouse and then cerebral cortex was collected by autopsy of the mouse to obtain RNA. cDNA was then prepared and mRNA expression level of GAD65 and GAD67 was analyzed by using real-time gene analyzer.

The subject of test [2] is GAD67 (glutamic acid decarboxylase 67) mRNA. Put plainly: mRNA expression level of GAD67 in cerebral cortex, stress-induced sleep disturbance model (real-time PCR). The method, then: as §1, §2, §3, §4

Take `CN(C)CCC=C1c2ccccc2COc2ccccc21` [doxepin]: the “mRNA expression level of neuropeptide Y in cerebral cortex compared to the control” value in the test with neuropeptide Y mRNA was “increased in statistically significant sense”; in the test with neuropeptide Y mRNA (listed as positive control), “higher expression in significant sense”. Also, in test [1], the “mRNA expression level of GAD65 in cerebral cortex compared to the control” value is “tend to show higher expression”. Further, the “mRNA expression level of GAD67 in cerebral cortex compared to the control” value in test [2] was “tend to show higher expression”.
